# Where two headings read alike, the source gives them in different places.
# Experiments:
# Test in all cases: Michaelis-Menten kinetics, yeast microsomes, HPLC of product […]
# HpRPThxa = system: T1, HpRPThxa; assay type: biochemical, Hypericum perforatum; conditions: Mg2+, optimum pH 9.0-9.5, 40 °C, read-out: apparent KM
# T1 construct: gene RPThxa; full-length, 1173 bp ORF, pESC-URA, yeast INVSc1 microsomes
# HsRPThxa = system: T2, HsRPThxa; assay type: biochemical, Hypericum sampsonii; conditions: Mg2+, optimum pH 9.0-9.5, 35 °C, read-out: apparent KM
# T2 construct: gene RPThxa; full-length, 1176 bp ORF, pESC-URA, yeast INVSc1 microsomes
# HsRPThxa-tr = system: T3, HsRPThxa-tr; assay type: biochemical, Hypericum sampsonii; conditions: optimum pH 9.0-10.0, 40 °C, read-out: apparent KM
# T3 construct: gene RPThxa; lacks the N-terminal 24 residues (transit peptide), yeast microsomes
# [1] = formation of hyperixanthone A (C-4 reverse prenylation), co-substrate DMAPP
SMILES,Km (HpRPThxa; co-substrate patulone),Km (HsRPThxa; co-substrate patulone),Km (HsRPThxa-tr; co-substrate patulone),Km (HpRPThxa; [1]),Km (HsRPThxa; [1]),Km (HsRPThxa-tr; co-substrate DMAPP)
CC(C)=CCOP(=O)(O)OP(=O)(O)O [DMAPP],260 ± 22.9 µM,102 ± 6.35 µM,30.9 ± 2.58 µM,,,
"CC(C)=CCC1(CC=C(C)C)C(=O)C(O)=Cc2oc3cc(O)cc(O)c3c(=O)c21 [compound 2, patulone]",,,,46 ± 4.43 µM,52.4 ± 4.16 µM,31.3 ± 4.05 µM
